Assay results as given in PubChem BioAssay AID248 (DTP/NCI, 2004).
“And” between values parts separate entries of the source, which are not always exact repeats. Equal entries are not always repeated. Toxic doses and inconclusive results are not listed. No stated cut-off is given here; in the data, active means T/C of 150% or more; inactive means T/C below 125%.

System: L1210 leukemia ip in BDF1 mice, survival T/C
Test: NCI In Vivo Anticancer Drug Screen. Data for tumor model L1210 Leukemia (intraperitoneal) in B6D2F1 (BDF1) mice
Settings: endpoint: mean survival time, higher = longer survival
Procedure, shortened: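 Transplanted-tumor mice were given test agent; controls received vehicle only. Survival readings from the two groups were divided (treated over control).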

[1] = dose: 100.0 mg/kg/injection, schedule: Q04DX002 (ip), vehicle: Klucel (hydroxypropylcellulose) (HPC)
[2] = dose: 100.0 mg/kg/injection, schedule: Q01DX009 (ip), vehicle: Klucel (hydroxypropylcellulose) (HPC)
[3] = dose: 200.0 mg/kg/injection, schedule: Q01DX009 (ip), vehicle: Klucel (hydroxypropylcellulose) (HPC)
[4] = dose: 400.0 mg/kg/injection, schedule: Q01DX009 (ip), vehicle: Klucel (hydroxypropylcellulose) (HPC)
[5] = dose: 25.0 mg/kg/injection, schedule: Q01DX009 (ip), vehicle: Klucel (hydroxypropylcellulose) (HPC)
[6] = dose: 50.0 mg/kg/injection, schedule: Q01DX009 (ip), vehicle: Klucel (hydroxypropylcellulose) (HPC)
[7] = dose: 100.0 mg/kg/injection, schedule: Q01DX001 (ip), vehicle: saline
[8] = dose: 100.0 mg/kg/injection, schedule: Q01DX009 (ip), vehicle: saline
[9] = dose: 100.0 mg/kg/injection, schedule: Q04DX003 (ip), vehicle: Klucel (hydroxypropylcellulose) (HPC)
[10] = dose: 200.0 mg/kg/injection, schedule: Q01DX001 (ip), vehicle: saline
[11] = dose: 200.0 mg/kg/injection, schedule: Q01DX009 (ip), vehicle: saline
[12] = dose: 200.0 mg/kg/injection, schedule: Q04DX003 (ip), vehicle: Klucel (hydroxypropylcellulose) (HPC)
[13] = dose: 400.0 mg/kg/injection, schedule: Q01DX009 (ip), vehicle: saline
[14] = dose: 400.0 mg/kg/injection, schedule: Q04DX003 (ip), vehicle: Klucel (hydroxypropylcellulose) (HPC)
[15] = dose: 100.0 mg/kg/injection, schedule: Q04DX003 (ip), vehicle: saline with Tween-80
[16] = dose: 200.0 mg/kg/injection, schedule: Q04DX003 (ip), vehicle: saline with Tween-80
[17] = dose: 400.0 mg/kg/injection, schedule: Q04DX003 (ip), vehicle: saline with Tween-80
[18] = dose: 100.0 mg/kg/injection, schedule: Q04DX003 (ip), vehicle: saline
[19] = dose: 200.0 mg/kg/injection, schedule: Q04DX003 (ip), vehicle: saline
[20] = dose: 400.0 mg/kg/injection, schedule: Q04DX003 (ip), vehicle: saline
[21] = dose: 200.0 mg/kg/injection, schedule: Q04DX002 (ip), vehicle: Klucel (hydroxypropylcellulose) (HPC)
[22] = dose: 400.0 mg/kg/injection, schedule: Q04DX002 (ip), vehicle: Klucel (hydroxypropylcellulose) (HPC)

Measured: T/C

C/C(=N\O)C(O)c1ccccc1 (centres undefined)
inactive: dose: 50.0 mg/kg/injection, schedule: Q01DX001 (ip), vehicle: other 97 % of control | dose: 100.0 mg/kg/injection, schedule: Q01DX001 (ip), vehicle: other 89 % of control | dose: 200.0 mg/kg/injection, schedule: Q01DX001 (ip), vehicle: other 97 % of control | dose: 400.0 mg/kg/injection, schedule: Q01DX001 (ip), vehicle: other 92 % of control

COc1ccccc1/C1=C/CCCCCC1
inactive: dose: 50.0 mg/kg/injection, schedule: Q01DX009 (ip), vehicle: acetone 90 % of control | dose: 100.0 mg/kg/injection, schedule: Q01DX009 (ip), vehicle: acetone 88 % of control | dose: 100.0 mg/kg/injection, schedule: Q04DX003 (ip), vehicle: acetone 100 % of control | dose: 200.0 mg/kg/injection, schedule: Q01DX009 (ip), vehicle: acetone 87 % of control | dose: 200.0 mg/kg/injection, schedule: Q04DX003 (ip), vehicle: acetone 92 % of control | dose: 400.0 mg/kg/injection, schedule: Q04DX003 (ip), vehicle: acetone 89 % of control

CCCCCCCCC1NC1CCCCCCCC(=O)OC (centres undefined)
inactive: dose: 25.0 mg/kg/injection, schedule: Q04DX002 (ip), vehicle: Klucel (hydroxypropylcellulose) (HPC) 101 % of control | dose: 50.0 mg/kg/injection, schedule: Q04DX002 (ip), vehicle: Klucel (hydroxypropylcellulose) (HPC) 107 % of control | [1] 98 % of control

COC12CC(COC(=O)c3cncc(Br)c3)CN(C)C1Cc1cn(C)c3cccc2c13 (centres undefined)
inactive: [2] 100 % of control | [3] 116 % of control | [4] 113 % of control

O=C1CCC(N2C(=O)c3ccccc3C2=O)C(=O)N1 (centres undefined)
inactive: [5] 112 % of control | dose: 25.0 mg/kg/injection, schedule: Q04DX003 (ip), vehicle: Klucel (hydroxypropylcellulose) (HPC) 109 % of control | dose: 31.3 mg/kg/injection, schedule: Q01DX Z (ip), vehicle: saline 102 % of control | dose: 50.0 mg/kg/injection, schedule: Q01DX001 (ip), vehicle: saline 105 % of control | [6] 111 % of control | dose: 50.0 mg/kg/injection, schedule: Q04DX003 (ip), vehicle: Klucel (hydroxypropylcellulose) (HPC) 95 % of control | dose: 62.5 mg/kg/injection, schedule: Q01DX Z (ip), vehicle: saline 94 % of control | [7] 105 % of control | [2] 103 % of control | [8] 96 % of control | [9] 98 % of control | dose: 125.0 mg/kg/injection, schedule: Q01DX Z (ip), vehicle: saline 104 % of control | [10] 111 % of control | [3] 100 % of control | [11] 102 % of control | [12] 98 % of control | dose: 250.0 mg/kg/injection, schedule: Q01DX Z (ip), vehicle: saline 102 % of control | dose: 400.0 mg/kg/injection, schedule: Q01DX001 (ip), vehicle: saline 109 % of control | [4] 101 % of control | [13] 98 % of control | [14] 106 % of control | dose: 800.0 mg/kg/injection, schedule: Q01DX009 (ip), vehicle: saline 95 % of control

O=C(Cn1ccc(O)cc1=O)c1ccc(Cl)s1
inactive: dose: 100.0 mg/kg/injection, schedule: Q01DX009 (ip), vehicle: saline with Tween-80 111 % of control | [15] 98 % of control | dose: 200.0 mg/kg/injection, schedule: Q01DX009 (ip), vehicle: saline with Tween-80 90 % of control | [16] 93 % of control | dose: 400.0 mg/kg/injection, schedule: Q01DX009 (ip), vehicle: saline with Tween-80 91 % of control | [17] 98 % of control

O=C(c1cccc2ccccc12)N(c1ccccc1)c1ccccc1
inactive: [9] 103 % of control

CCCCOP(=O)(c1ccccc1)N1CCCCC1 (centres undefined)
inactive: dose: 25.0 mg/kg/injection, schedule: Q04DX002 (ip), vehicle: saline with Tween-80 103 % of control | dose: 50.0 mg/kg/injection, schedule: Q04DX002 (ip), vehicle: saline with Tween-80 103 % of control | dose: 100.0 mg/kg/injection, schedule: Q04DX002 (ip), vehicle: saline with Tween-80 92 % of control and 107 % of control

NC(=O)c1c(Cl)cccc1Cl
inactive: [9] 111 % of control | [12] 101 % of control | [14] 101 % of control

COC(=O)C1=C(C(=O)OC)[C@H]2O[C@H]1[C@@H]1O[C@@H]12
inactive: dose: 6.25 mg/kg/injection, schedule: Q01DX009 (ip), vehicle: saline 104 % of control | dose: 12.5 mg/kg/injection, schedule: Q01DX001 (ip), vehicle: saline 99 % of control | dose: 12.5 mg/kg/injection, schedule: Q01DX009 (ip), vehicle: saline 100 % of control | dose: 25.0 mg/kg/injection, schedule: Q01DX001 (ip), vehicle: saline 100 % of control

S=C(NCc1ccc(Cl)cc1Cl)Nc1ccccc1
inactive: [5] 101 % of control | [6] 98 % of control | [2] 103 % of control and 109 % of control | [3] 88 % of control

CCCCCCCCCCC(N)P(=O)(O)O (centres undefined)
inactive: dose: 12.5 mg/kg/injection, schedule: Q01DX009 (ip), vehicle: saline with Tween-80 103 % of control | dose: 25.0 mg/kg/injection, schedule: Q01DX009 (ip), vehicle: saline with Tween-80 101 % of control | dose: 50.0 mg/kg/injection, schedule: Q01DX009 (ip), vehicle: saline with Tween-80 105 % of control | dose: 300.0 mg/kg/injection, schedule: Q01DX001 (ip), vehicle: saline 98 % of control

CCN(CC)C(=O)Cn1cc(F)c(NC(C)=O)nc1=O
inactive: [18] 97 % of control | [19] 101 % of control | [20] 101 % of control

CC1(C#N)CCC2c3ccccc3CCC2C1=O (centres undefined)
inactive: [8] 95 % of control | [18] 100 % of control | [11] 96 % of control | [19] 98 % of control | [13] 106 % of control | [20] 97 % of control

CCCS(=O)(=O)N1CCCCC1
inactive: [1] 102 % of control | [21] 94 % of control | [22] 102 % of control

Cc1ccccc1/C=N/NC(=O)c1cccc2ccccc12
inactive: [7] 89 % of control | [10] 100 % of control

O=C(O)/C=C\C(=O)Nc1ccccc1C(=O)O
inactive: [15] 98 % of control | [16] 97 % of control | [17] 111 % of control

O=C(/C=C/c1ccc2c(c1)OCO2)c1ccc2ccccc2c1
inactive: dose: 100.0 mg/kg/injection, schedule: Q04DX002 (ip), vehicle: gum acacia 103 % of control | dose: 200.0 mg/kg/injection, schedule: Q04DX002 (ip), vehicle: gum acacia 96 % of control | dose: 400.0 mg/kg/injection, schedule: Q04DX002 (ip), vehicle: gum acacia 92 % of control

CC(C)(C)c1nc2ccc([N+](=O)[O-])cc2[nH]1
inactive: dose: 38.0 mg/kg/injection, schedule: Q01DX009 (ip), vehicle: other 104 % of control | dose: 75.0 mg/kg/injection, schedule: Q01DX001 (ip), vehicle: other 92 % of control | dose: 75.0 mg/kg/injection, schedule: Q04DX003 (ip), vehicle: other 92 % of control | dose: 150.0 mg/kg/injection, schedule: Q01DX001 (ip), vehicle: other 91 % of control | dose: 150.0 mg/kg/injection, schedule: Q04DX003 (ip), vehicle: other 92 % of control | dose: 300.0 mg/kg/injection, schedule: Q01DX001 (ip), vehicle: other 97 % of control

O=C(CCCN1CCC2(CC1)OC(=O)N(c1ccccc1)C2=O)c1ccc(F)cc1
inactive: [9] 89 % of control | [12] 106 % of control

CS(=O)(=O)OCC1OC(c2ccccc2)OC(C(CBr)OS(C)(=O)=O)C1OS(C)(=O)=O (centres undefined)
inactive: [1] 97 % of control | [21] 93 % of control | [22] 93 % of control
